Test results as given in patent publication US6858638B2, “Substituted indazoles, compositions containing them, method of production and use” (Aventis Pharma S.A., priority 2002, dated 2005).

What was measured:
Format in all cases: biochemical
human KDR enzyme = target: T1, human KDR enzyme (Homo sapiens, UniProt P35968); assay: KDR substrate (PLCγ) phosphorylation, scintillation assay; details: 10 μM; read-out: KDR % inhib at 10 μM
T1 construct: The cytoplasmic domain of the human KDR enzyme; GST; made in house; host or cells: SF21 insect cells (baculovirus)
Description: The inhibitory effect of the compounds is determined in an assay of substrate phosphorylation by the KDR enzyme in vitro using a scintillation technique (96-well plate, NEN).
The cytoplasmic domain of the human KDR enzyme was cloned in the form of a GST fusion into the baculovirus expression vector pFastBac. The protein was expressed in SF21 cells and purified to approximately 60% homogeneity.
The KDR kinase activity is measured in 20 mM MOPS, 10 mM MgCl2, 10 mM MnCl2, 1 mM DTT, 2.5 mM EGTA, 10 mM β-glycerophosphate, pH=7.2, in the presence of 10 mM MgCl2, 100 μM Na3VO4, 1 mM NaF. 10 μl of the compound are added to 70 μl of kinase buffer containing 100 ng of KDR enzyme at 4° C. The reaction is triggered by adding 20 μl of solution containing 2 μg of substrate (SH2-SH3 fragment of PLCγ expressed in the form of a GST fusion protein), 2 μCi γ^33P[ATP] and 2 μM cold ATP. After incubation for 1 hour at 37° C., the reaction is stopped by adding 1 volume (100 μl) of 200 mM EDTA. The incubation buffer is removed and the wells are washed three times with 300 μl of PBS. The radioactivity is measured in each well using Top Count NXT radioactivity counter (Packard).
The background noise is determined by measuring the radioactivity in four different wells containing the radioactive ATP and the substrate alone.
A control for total activity is measured in four different wells containing all the reagents (γ^33P-[ATP], KDR and PLCγ substrate) but in the absence of compound.
The inhibition of the KDR activity with the compound of the invention is expressed as percentage inhibition of the control activity determined in the absence of compound.
The compound SU5614 (Calbiochem) (1 μM) is included in each plate as an inhibition control.

human FAK = target: T2, human FAK (Homo sapiens, UniProt Q05397); assay: FAK autophosphorylation inhibition, time resolved fluorescence (HTRF) assay; details: for inhibition at 10 µM: 10 μM (values without asterisk), read-out: FAK % inhib at 10 μM; for inhibition at 30 µM: 30 μM (values marked *), read-out: FAK % inhib at 30* μM
T2 construct: The complete cDNA of human FAK; made in house; host or cells: baculovirus expression system (vector pFastBac HTc)
Description: The inhibitory activity of the compounds on FAK is determined by measuring the inhibition of the autophosphorylation of the enzyme using a time resolved fluorescence (HTRF) assay.
The complete cDNA of human FAK, the N-terminal end of which was labeled with histidine, was cloned into a baculovirus expression vector pFastBac HTc. The protein was expressed and purified to approximately 70% homogeneity.
The kinase activity is determined by incubating the enzyme (6.6 μg/ml) with various concentrations of test compound in a 50 mM Hepes buffer, pH=7.2, containing 10 mM MgCl2, 100 μM Na3VO4 and 15 μM d'ATP for 1 hour at 37° C. The enzyme reaction is stopped by adding Hepes buffer, pH=7.0, containing […], 133 mM EDTA and 0.1% BSA, and the labeling is carried out, over 1 to 2 hours at ambient temperature, by adding to this buffer an anti-Histidine antibody labeled with XL665 and a monoclonal antibody phosphospecific for tyrosine, conjugated to europium cryptate (Eu-K). The characteristics of the two fluorophores are available in G. Mathis et al., Anticancer Research, 1997, 17, pages 3011-3014. The transfer of energy from the excited europium cryptate to the XL665 acceptor is proportional to the degree of autophosphorylation of FAK. The long-lived signal specific for XL-665 is measured in a Packard Discovery plate counter. All the assays are carried out in duplicate and the mean of the two assays is calculated. The inhibition of the FAK autophosphorylation activity with compounds of the invention is expressed as percentage inhibition compared to a control whose activity is measured in the absence of test compound. The [signal at 665 nm/signal at 620 nm] ratio is used for the calculation of the % inhibition.

Aurora2 kinase = target: T3, Aurora2 kinase (Homo sapiens, UniProt O14965); assay: Aurora2 kinase radioactivity scintillation assay using nickel chelate (NuMA substrate); details: 10 μM; read-out: Aurora2 % inhib at 10 μM
T3 construct: A complete recombinant Aurora2 enzyme; His tag (N); made in house; host or cells: E. coli
T3 sequence (O14965 1-403): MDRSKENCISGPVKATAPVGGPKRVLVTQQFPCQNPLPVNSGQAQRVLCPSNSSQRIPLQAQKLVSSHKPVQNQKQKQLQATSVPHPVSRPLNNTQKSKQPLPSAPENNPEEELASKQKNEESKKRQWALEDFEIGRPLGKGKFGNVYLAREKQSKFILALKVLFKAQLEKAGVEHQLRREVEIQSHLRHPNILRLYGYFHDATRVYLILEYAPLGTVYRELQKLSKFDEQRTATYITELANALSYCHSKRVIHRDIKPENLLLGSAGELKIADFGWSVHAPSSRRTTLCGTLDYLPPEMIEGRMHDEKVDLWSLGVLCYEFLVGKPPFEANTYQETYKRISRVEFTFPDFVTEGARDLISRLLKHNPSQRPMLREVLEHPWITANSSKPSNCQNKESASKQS
Description: The inhibitory effect of compounds with respect to the Aurora2 kinase is determined with a radioactivity scintillation assay using nickel chelate.
A complete recombinant Aurora2 enzyme, the N-terminal end of which was labeled with histidine, was expressed in E. coli and purified to a quality close to homogeneity.
The C-terminal fragment (Q1687-H2101) of a NuMA (Nuclear protein that associates with the Mitotic Apparatus) expressed in E. coli, and the N-terminal end of which was labeled with histidine, was purified by nickel chelate chromatography and used as substrate in the Aurora2 kinase assay. In order to determine the kinase activity, the NuMA substrate is equilibrated by chromatography on a Pharmacia PD10 column, in a buffer (50 mM Tris HCl, pH7.5, 50 mM NaCl, 10 mM MgCl2) to which 10% (v/v) of glycerol and 0.05% (w/v) of NP40 have been added.
The kinase acivitity of Aurora2 is measured by scintillation with nickel chelate (New England Nuclear, model SMP107). Each well contains 100 μl of the following solution: 0.02 μM of Aurora2; 0.5 μM of NuMA substrate; 1 μM of ATP to which 0.5 μCi of ATP-[^33P] has been added. The solutions are incubated for 30 minutes at 37° C. The assay buffer is then removed and the wells are rinsed twice with 300 μl of kinase buffer. The radioactivity is measured in each well using a Packard Model Top Count NXT device.
The background noise is deduced from the measurement of radioactivity by measuring, in duplicate, in wells containing the radioactive ATP alone containing buffered kinase treated in the same way as the other samples.
The activity of the control is determined by measuring, in duplicate, the radioactivity in the complete assay mixture (ATP, Aurora2 and the NuMA substrate) in the absence of test compound.
The inhibition of the Aurora2 with a compound of the invention is expressed as percentage inhibition of the control activity in the absence of test compound. Staurosporine is added to each plate as an inhibition control.

T1 sequence (P35968 786-1356 limits assumed): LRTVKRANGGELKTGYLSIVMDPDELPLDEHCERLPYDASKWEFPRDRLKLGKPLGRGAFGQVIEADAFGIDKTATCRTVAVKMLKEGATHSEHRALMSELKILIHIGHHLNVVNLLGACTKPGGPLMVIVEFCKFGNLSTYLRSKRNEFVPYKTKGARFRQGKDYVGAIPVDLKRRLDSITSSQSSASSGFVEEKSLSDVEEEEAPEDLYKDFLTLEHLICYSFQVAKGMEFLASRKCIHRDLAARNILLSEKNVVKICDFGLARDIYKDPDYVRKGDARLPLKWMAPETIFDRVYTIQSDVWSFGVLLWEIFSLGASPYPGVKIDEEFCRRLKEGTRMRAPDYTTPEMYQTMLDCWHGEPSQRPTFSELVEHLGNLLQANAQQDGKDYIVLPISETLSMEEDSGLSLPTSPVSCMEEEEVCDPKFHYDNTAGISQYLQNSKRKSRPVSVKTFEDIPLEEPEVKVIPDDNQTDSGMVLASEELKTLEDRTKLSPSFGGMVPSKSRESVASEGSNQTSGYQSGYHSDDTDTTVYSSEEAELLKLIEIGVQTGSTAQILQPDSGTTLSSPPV
T2 sequence (Q05397 whole entry): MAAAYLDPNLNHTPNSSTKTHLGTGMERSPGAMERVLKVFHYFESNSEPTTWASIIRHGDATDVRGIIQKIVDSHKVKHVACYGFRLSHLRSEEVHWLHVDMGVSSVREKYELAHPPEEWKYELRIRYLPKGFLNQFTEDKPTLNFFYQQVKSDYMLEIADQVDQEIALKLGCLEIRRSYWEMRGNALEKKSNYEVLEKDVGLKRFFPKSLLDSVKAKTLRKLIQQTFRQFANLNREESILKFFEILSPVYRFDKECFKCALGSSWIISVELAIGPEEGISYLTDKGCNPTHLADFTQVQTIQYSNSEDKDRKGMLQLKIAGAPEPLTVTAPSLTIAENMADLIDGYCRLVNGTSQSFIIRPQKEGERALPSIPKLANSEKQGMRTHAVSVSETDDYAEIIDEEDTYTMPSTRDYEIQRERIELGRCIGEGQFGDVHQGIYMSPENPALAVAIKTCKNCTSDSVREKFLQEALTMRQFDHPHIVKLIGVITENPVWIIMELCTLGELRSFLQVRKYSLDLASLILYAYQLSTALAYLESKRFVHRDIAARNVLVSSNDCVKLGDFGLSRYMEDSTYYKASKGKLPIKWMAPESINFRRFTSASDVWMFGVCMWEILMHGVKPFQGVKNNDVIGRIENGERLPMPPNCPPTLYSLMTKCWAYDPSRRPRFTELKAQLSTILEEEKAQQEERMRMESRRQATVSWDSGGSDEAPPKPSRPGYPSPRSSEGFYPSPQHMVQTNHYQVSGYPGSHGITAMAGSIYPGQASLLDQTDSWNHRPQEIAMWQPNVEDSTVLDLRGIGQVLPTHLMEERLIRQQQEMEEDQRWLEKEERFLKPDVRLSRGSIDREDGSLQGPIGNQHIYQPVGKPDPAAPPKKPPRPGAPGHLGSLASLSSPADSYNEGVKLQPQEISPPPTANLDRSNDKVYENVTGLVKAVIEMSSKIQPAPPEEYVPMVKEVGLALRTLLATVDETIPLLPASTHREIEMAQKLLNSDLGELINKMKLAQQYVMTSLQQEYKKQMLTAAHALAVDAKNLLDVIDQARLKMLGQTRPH

inhibition at 10 µM (human KDR enzyme) [%] | inhibition at 10 µM (human FAK) [%] | inhibition at 10 µM (Aurora2 kinase) [%] | inhibition at 30 µM (human FAK) [%] | SMILES
13 | 6 | 76 |  | CS(=O)(=O)Nc1n[nH]c2ccc(NS(=O)(=O)c3cccc(F)c3)cc12 [Example 27, 3-Fluoro-N-(3-methylsulfonylamino-1H-indazol-5-yl)benzenesulfonamide]
18 | 89 | 84 |  | O=C(Nc1ccccc1)c1n[nH]c2ccc(NS(=O)(=O)c3cccc(F)c3)cc12 [Example 22, N-Phenyl-5-(3-fluorobenzenesulfonylamino)-1H-indazole-3-carboxamide]
25 | 32 | 65 |  | CC(=O)Nc1ccccc1-c1n[nH]c2ccc(NS(=O)(=O)c3cccc(F)c3)cc12 [Example 47, N-{2-[5-(3-Fluorobenzenesulfonylamino)-1H-indazol-3-yl]phenyl}acetamide]
 |  | 100 |  | CS(=O)(=O)c1ccccc1S(=O)(=O)Oc1ccc2[nH]nc(-c3nc4ccccc4[nH]3)c2c1 [Example 226, 3-(1H-Benzimidazol-2-yl)-1H-indazol-5-yl-2-methanesulfonylbenzenesulfonate]
46 | 59 |  |  | O=S(=O)(Oc1ccc2[nH]ncc2c1)c1cccc(F)c1 [Example 17, 1H-Indazol-5-yl 3-fluorobenzenesulfonate]
8 | 58 |  |  | O=S(=O)(Nc1ccc2[nH]nc(O)c2c1)c1cccc(F)c1 [Example 16, 3-Fluoro-N-(3-hydroxy-1H-indazol-5-yl)benzenesulfonamide]
80 |  |  | 76 | NC(=O)c1n[nH]c2ccc(NS(=O)(=O)c3cccc(F)c3)cc12 [Example 21]

The next lines start with the molecule.

SMILES | inhibition at 10 µM (human KDR enzyme) [%] | inhibition at 10 µM (human FAK) [%] | inhibition at 10 µM (Aurora2 kinase) [%] | inhibition at 30 µM (human FAK) [%]
COc1ccc(S(=O)(=O)Nc2ccc3[nH]nc(-c4ccccc4)c3c2)cc1 [Example 120, 4-Methoxy-N-(3-phenyl-1H-indazol-5-yl)-benzenesulfonamide] | 69 | 36 | 52 | 
O=S(=O)(Nc1ccc2[nH]ncc2c1)c1cccc(F)c1 [Example 15, 3-Fluoro-N-(1H-indazol-5-yl)benzenesulfonamide] | 13 |  |  | 67
CC(C)(C)c1ccc(S(=O)(=O)Nc2ccc3[nH]nc(-c4ccccc4)c3c2)cc1 [Example 121, 4-tert-Butyl-N-(3-phenyl-1H-indazol-5-yl)-benzenesulfonamide] | 39 | 5 | 27 | 
O=S(=O)(Nc1ccc2[nH]nc(-c3ccccc3)c2c1)c1cccc(-c2ccccc2)c1 [Example 157, N-(3-Phenyl-1H-indazol-5-yl)-biphenyl-3-sulfonamide] | 63 | 0 | 38 | 
COc1ccc(Cl)cc1-c1n[nH]c2ccc(NS(=O)(=O)c3ccccc3S(C)(=O)=O)cc12 [Example 215, N-[3-(5-Chloro-2-methoxy-phenyl)-1H-indazol-5-yl]-2-methanesulfonyl-benzenesulfonamide] | 39 | 97 | 86 | 
O=S(=O)(Nc1cccc(F)c1)c1ccc2[nH]ncc2c1 [Example 11, N-(3-Fluorophenyl)-(1H-indazol-5-yl)sulfonamide] | 7 | 59 |  | 
CCCCOc1ccc(S(=O)(=O)Nc2ccc3[nH]nc(-c4ccccc4)c3c2)cc1 [Example 145, 4-Butoxy-N-(3-phenyl-1H-indazol-5-yl)-benzenesulfonamide] | 14 | 0 | 26 | 
CNC(=O)c1n[nH]c2ccc(NS(=O)(=O)c3cccc(F)c3)cc12 [Example 19, N-Methyl-5-(3-fluorobenzenesulfonylamino)-1H-indazole-3-carboxamide] | 73 | 85 |  | 
CCS(=O)(=O)Nc1ccc2[nH]nc(-c3ccccc3)c2c1 [Example 127, N-(3-Phenyl-1H-indazol-5-yl)-ethanesulfonamide] | 63 | 32 | 78 | 
O=S(=O)(Nc1ccc2[nH]nc(I)c2c1)c1cccc(F)c1 [Example 12, 3-Fluoro-N-(3-iodo-1H-indazol-5-yl)benzenesulfonamide] | 39 |  |  | 92
O=S(=O)(Nc1ccc2[nH]nc(Cl)c2c1)c1ccc(Cl)c(Cl)c1 [Example 2, N-(3-Chloro-1H-indazol-5-yl)-3,4-dichlorobenzenesulfonamide] | 43 |  |  | 75
CS(=O)(=O)c1ccccc1S(=O)(=O)Oc1ccc2[nH]nc(-c3cc4ccccc4[nH]3)c2c1 [Example 227] |  |  | 100 | 
CS(=O)(=O)c1ccccc1S(=O)(=O)Nc1ccc2[nH]nc(C(N)=O)c2c1 [Example 20] | 28 | 76 |  | 
CS(=O)(=O)c1ccccc1S(=O)(=O)Nc1ccc2[nH]nc(C#N)c2c1 [Example 5, N-(3-Cyano-1H-indazol-5-yl)-2-methylsulfonylbenzenesulfonamide] | 26 |  |  | 80
